Entries after “also recorded” stand apart in the source; their conditions may differ.
Columns and labels:
Assay type in all cases: cell-based
[1] = test system: transglutaminase type 1 promoter linked to a firefly luciferase gene (TG-1 Luc); assay: TG-1 Luc reporter assay in transfected human epidermal keratinocytes (HEKs)
Procedure: (§1) Human epidermal keratinocytes (HEKs) were isolated and cultured from neonatal foreskins as described (1). The SCC cell line, KJD-1/SV40, were grown in culture as previously reported (2). Growth arrest and differentiation was induced by maintaining confluent cells in culture over 48 hours or by treatment with the protein kinase C (PKC) activator, 12-Otetradecanoyl-phorbol-13-acetate (TPA, 50 ng/ml for 48 hours). Both these treatment regimes induce robust and reproducible differentiation in HEKs but not in SCC cell lines (2, 41-43).
(§2) The human cdc2 promoter construct driving expression of a CAT reporter gene (cdc2-CAT) has been previously described (6). The 2.9kb transglutaminase type 1 promoter linked to a firefly luciferase gene (TG-1 Luc), keratin 10 reporter (K10-Luc), β actin-CAT reporter gene and β actin-luciferase reporter gene have also been previously described (2, 6, 41, 44, 45). β actin-CAT or β actin-Luc reporters were used to normalize for transfection efficiency. The CMV-E2F1 construct was a kind gift from Dr Kristian Helin (16). The CMV-E2F 2-5 constructs were generous gifts from Dr David Livingston (46). The mutant E2F1 constructs, 132E2F1 and 409E2F1, were kindly provided by Dr Joseph Nevins (47). The E2F1 dominant-negative (E2Fd/n) construct codes for amino acids 116-235, spanning for the DNA binding domain and heterodimerisation domain (2).
(§3) Transient transfections of cells were performed in 10 cm^2 well, when cells were either 50% or 100% confluent. Reporter activity was assayed 48 hours post-transfection. Transfection protocols for cultured HEKs using Lipofectamine™ (Invitrogen, Australia) and KJD-1/SV40 cells using Effectene (Qiagen, Australia) have been described previously (2). Transfections were performed in triplicate and repeated at least three times.
(§4) Chloramphenicol acetyltransferase assays (CAT) were performed using a CAT ELISA kit (Roche, Australia) as per manufacturer's instructions. The luciferase assay protocol has been previously reported (6, 41).

[2] = test system: keratin 10 promoter linked to a firefly luciferase gene (K10-Luc); assay: K10-Luc reporter assay in transfected human epidermal keratinocytes (HEKs)
Procedure: as §1, §2, §3, §4

[3] = test system: human cdc2 promoter (cdc2-CAT); assay: cdc2-CAT reporter assay in transfected human epidermal keratinocytes (HEKs); conditions: proliferating HEKs co-transfected with expression plasmid
Procedure: as §1
as §2, with “(2). […]” for “(2).”

[4] = test system: transglutaminase-1 promoter (TG-1 Luc) in KJD-1/SV40 cells; assay: TG-1 Luc reporter assay in KJD-1/SV40 squamous cell carcinoma cells; conditions: proliferating KJD-1/SV40 cells; TPA 50 ng/ml for 48 hours where used; FIG. 6
Procedure: as §1
as §2, with “(2). […]” for “(2).”

[5] = differentiated (confluent or TPA-treated) HEKs co-transfected with expression plasmid, assayed 48 hours post-transfection
[6] = cultured HEKs induced to differentiate by treatment with TPA (50 ng/ml for 48 hours), FIG. 1

TG-1 Luc activity ([1]; proliferating HEKs transfected with E2Fd/n)	Compound	TG-1 Luc activity [1, 5]	K10-Luc activity [2, 5]	cdc2-CAT reporter activity (proliferation-specific marker) [3]	TG-1 Luc activity [4]	TG-1 Luc activity [1, 6]	K10-Luc activity [2, 6]
–	E2F1: E2F1 transcription factor overexpressed from the CMV-E2F1 expression plasmid	significantly suppressed; also recorded: suppresses	significantly suppressed	–	–	–	–
not sufficient to induce	E2Fd/n: E2F1 dominant-negative construct coding for amino acids 116-235, spanning the DNA binding domain and heterodimerisation domain	superinduce/derepress; also recorded: superinduces/derepresses	superinduces/derepresses	suppression	not altered	–	–
–	CCCCCCCCCCCCCC(=O)O[C@@H]1[C@@H](C)[C@@]2(O)[C@@H](C=C(CO)C[C@]3(O)C(=O)C(C)=C[C@@H]23)[C@@H]2C(C)(C)[C@]12OC(C)=O [TPA, 12-O-tetradecanoylphorbol-13-acetate, reference compound]	–	–	–	no induction	increased	increased

Source: patent US20050245473A1, “Proliferation- and differentiation-modulating agents and uses therefor” (priority 2003, published 2005)
